Laboratory results taken from patent US8436004B2, “Bicycloaniline derivative” (MSD K.K., priority 2007, dated 2013).
Counter-ions that a name gives are not always drawn.

Assays:
[1] = target: T1, Wee1 kinase (Homo sapiens, UniProt P30291); test: Wee1 kinase-inhibitory effect (33P-ATP, Poly(Lys,Tyr) substrate, filter assay); format: biochemical; conditions: 10 μM ATP, 30° C., 30 minutes
T1 construct: made in house; host or cells: Sf9 insect cells (recombinant baculovirus)
Excerpt: Pharmacological Test 1 (Wee1 Kinase-Inhibitory Effect)
(1) Purification of Wee1 Kinase:
A cDNA of Wee1 kinase with […] (GST) fused at the amino terminal thereof was inserted into a baculovirus expression vector to construct a recombinant baculovirus, with which cells of an insect cell line Sf9 were infected for high expression therein. The infected cells were recovered and solubilized, and then the GST-tagged Wee1 kinase protein was adsorbed by a glutathion column, and eluted from the column with glutathion, and the active fraction was desalted in a desalting column to give a purified enzyme.
(2) Determination of Wee1 Kinase Activity:
In determination of the Wee1 kinase activity, a synthetic peptide, Poly(Lys,Tyr) Hydrobromide (Lys:Tyr (4:1)) bought from Sigma was used as the substrate.
The amount of the reaction liquid was 21.1 μL; and the composition of the reaction buffer was 50 mM Tris-HCl buffer (pH 7.4)/10 mM magnesium chloride/1 mM dithiothreitol. The purified Wee1 kinase, 2.5 μg of the substrate peptide, 10 μM of non-labeled adenosine triphosphate (ATP) and 1 μCi of [γ-^33P]-labeled ATP (2500 Ci/mmol or more) were added to it, and reacted at 30° C. for 30 minutes. Next, 10 μL of 350 mM phosphate buffer was added to the reaction system to stop the reaction. The substrate peptide was adsorbed by a P81 paper filter 96-well plate, then washed a few times with 130 mM phosphate buffer, and its radioactivity was counted with a liquid scintillation counter. The [γ-^33P]-labeled ATP was bought from Amersham Bioscience.
To add the test compound to the reaction system, the compound was diluted with dimethylsulfoxide (DMSO) to prepare a series of dilutions. 1.1 μL of each dilution was added to the reaction system. As a control, 1.1 μL of DMSO was added to the reaction system.

[2] = test system: Cdc2 (Cdk1) tyrosine 15-phosphorylation in WiDr cells; test: Cdc2 (Cdk1) tyrosine 15-phosphorylation-inhibitory effect in gemcitabine-treated WiDr cells (ELISA); format: cell-based; conditions: Homo sapiens, gemcitabine 100 nM 24 hours, then test compound + nocodazole 8 hours, read-out: Cdc2-Y15 Phosphorylation-Inhibitory Effect (WiDr, + gemcitabine) (EC50)
Excerpt: Pharmacological Test 2 (Method of Determining Drug Potency with Cells (Cdc2 (Cdk1) Tyrosine 15-Phosphorylation-Inhibitory Effect))
Fetal bovine serum (FBS) was obtained from Morgate; media RPMI1640 and DMEM were from Invitrogen; camptothecin was from Sigma; gemcitabine was from Nippon Eli Lilly; nocodazole and protease inhibitor cocktail were from Sigma; rabbit anti-Cdc2 antibody and mouse anti-Cdc2 antibody were from Santa Cruz Biotechnology; rabbit anti-tyrosine 15-phosphorylated Cdc2 antibody and horseradish peroxidase-labeled anti-mouse IgG antibody were from Cell Signaling Technology; sure blue reserve TMB peroxidase substrate was from Kirkegaard and Perry Laboratories.
Human non-small cell lung cancer cells (NCI-H1299) and human colon cancer cells (WiDr) were obtained from American Type Culture Collection (ATCC).
In the method of using WiDr cells, the cells were suspended in a medium of 10% FBS-added DMEM, and the cell suspension was applied to a 96-well Nunclondelta-processed plastic plate in an amount of 2000 cells/100 μL/well, in which the cells were incubated overnight in 5% CO2-95% air at 37° C. […] Cdc2 was determined through ELISA as follows: A rabbit anti-Cdc2 antibody solution, which had been diluted 200-fold with 50 mM carbonate-bicarbonate buffer (pH 9.6), was applied to a 96-well maxisorp plastic plate in an amount of 50 μL/well, and statically kept overnight at 4° C. so as to fix the antibody on the plate. […] Then, 1 M hydrochloric acid was added to it in an amount of 100 μL/well to stop the reaction, and this was analyzed through colorimetry. Tyrosine 15-phosphorylated Cdc2 was determined through ELISA as follows: A rabbit anti-tyrosine 15-phosphorylated Cdc2 antibody solution, which had been diluted 100-fold with 50 mM carbonate-bicarbonate buffer (pH 9.6), was applied to a 96-well maxisorp plastic plate in an amount of 50 μL/well, and statically kept overnight at 4° C. so as to fix the antibody on the plate. […]

T1 sequence (P30291 whole entry): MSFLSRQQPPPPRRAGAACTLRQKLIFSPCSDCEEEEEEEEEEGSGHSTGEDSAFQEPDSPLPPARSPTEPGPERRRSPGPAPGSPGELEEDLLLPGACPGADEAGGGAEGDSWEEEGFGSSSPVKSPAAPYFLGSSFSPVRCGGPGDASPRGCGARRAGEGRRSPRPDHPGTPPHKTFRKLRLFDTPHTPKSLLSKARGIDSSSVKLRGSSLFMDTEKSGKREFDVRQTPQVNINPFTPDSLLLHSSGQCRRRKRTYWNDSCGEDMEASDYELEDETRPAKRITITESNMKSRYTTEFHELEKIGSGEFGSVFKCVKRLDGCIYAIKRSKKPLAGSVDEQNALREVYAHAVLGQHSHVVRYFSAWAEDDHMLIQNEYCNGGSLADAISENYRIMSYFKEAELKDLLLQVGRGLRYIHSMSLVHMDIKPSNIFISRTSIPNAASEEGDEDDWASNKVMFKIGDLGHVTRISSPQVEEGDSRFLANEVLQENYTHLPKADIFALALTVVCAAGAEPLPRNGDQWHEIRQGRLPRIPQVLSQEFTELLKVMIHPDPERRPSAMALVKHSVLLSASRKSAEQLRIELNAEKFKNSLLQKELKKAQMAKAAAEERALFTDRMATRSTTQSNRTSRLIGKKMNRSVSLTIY

| Structure (SMILES) | IC50 [1] [nM] | EC50 [2] [nM] |
| --- | --- | --- |
| CN1Cc2cc(Nc3ncc4c(=N)n(-c5c(Cl)cccc5Cl)c(=O)[nH]c4n3)ccc2C(C)(C)C1 [Example 2, 3-(2,6-dichlorophenyl)-4-imino-7-{[2,4,4-trimethyl-1,2,3,4-tetrahydroisoquinolin-7-yl]amino}-3,4-dihydropyrimido[4,5-d]pyrimidin-2(1H)-one] | 5.6 | 46 |
| CN1Cc2cc(Nc3ncc4c(=N)n(-c5c(Cl)cccc5Cl)c(=O)[nH]c4n3)ccc2C2(CC2)C1 [Example 1, 3-(2,6-dichlorophenyl)-4-imino-7-[(2′-methyl-2′,3′-dihydro-1′H-spiro[cyclopropane-1,4′-isoquinolin]-7′-yl)amino]-3,4-dihydropyrimido[4,5-d]pyrimidin-2(1H)-one dihydrochloride] | 5 | 21 |
| CN1Cc2cc(Nc3ncc4c(=N)n(-c5c(Cl)cccc5Cl)c(=O)[nH]c4n3)ccc2C1(C)C [Example 7, 3-(2,6-dichlorophenyl)-4-imino-7-[(1,1,2-trimethyl-2,3-dihydro-1H-isoindol-5-yl)amino]-3,4-dihydropyrimido[4,5-d]pyrimidin-2(1H)-one] | 4.3 | 24 |
